Test results as given in ChEMBL document CHEMBL1275601, “Striking species difference in the contribution of concentrative nucleoside transporter 2 to nucleoside uptake between mouse and rat hepatocytes” (Antimicrob Agents Chemother, 2010).
Activity calls are given as the source filed them.

Experiments:
Assay type in all cases: cell-based
Settings in all cases: Hepatocyte
[1] = target: T1, Equilibrative nucleoside transporter 2 (Rattus norvegicus) (UniProt O54699); test: Transport through ENT2 in rat hepatocytes by oil filtration assay in presence 100 uM of transporter inhibitor NBMRP
T1 sequence (whole entry): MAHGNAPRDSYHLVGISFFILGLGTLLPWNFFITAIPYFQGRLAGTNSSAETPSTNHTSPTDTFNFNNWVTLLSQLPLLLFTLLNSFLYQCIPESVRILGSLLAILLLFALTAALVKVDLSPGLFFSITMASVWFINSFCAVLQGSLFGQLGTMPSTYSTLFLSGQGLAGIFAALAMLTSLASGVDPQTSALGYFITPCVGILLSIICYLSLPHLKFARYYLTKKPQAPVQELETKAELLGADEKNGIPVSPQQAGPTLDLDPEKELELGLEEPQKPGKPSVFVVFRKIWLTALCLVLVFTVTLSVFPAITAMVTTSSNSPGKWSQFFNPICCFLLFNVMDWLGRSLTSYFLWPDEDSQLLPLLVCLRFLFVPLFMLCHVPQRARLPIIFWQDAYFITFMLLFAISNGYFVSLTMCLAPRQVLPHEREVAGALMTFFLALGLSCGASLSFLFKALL

[2] = target: T2, Sodium/nucleoside cotransporter 1 (Rattus norvegicus) (UniProt Q62674); test: Transport through CNT1 in rat hepatocytes by oil filtration assay in presence of sodium ions in Kreb-henseleit buffer containing 100 uM NBMPR and 1 mM uridine
T2 sequence (whole entry): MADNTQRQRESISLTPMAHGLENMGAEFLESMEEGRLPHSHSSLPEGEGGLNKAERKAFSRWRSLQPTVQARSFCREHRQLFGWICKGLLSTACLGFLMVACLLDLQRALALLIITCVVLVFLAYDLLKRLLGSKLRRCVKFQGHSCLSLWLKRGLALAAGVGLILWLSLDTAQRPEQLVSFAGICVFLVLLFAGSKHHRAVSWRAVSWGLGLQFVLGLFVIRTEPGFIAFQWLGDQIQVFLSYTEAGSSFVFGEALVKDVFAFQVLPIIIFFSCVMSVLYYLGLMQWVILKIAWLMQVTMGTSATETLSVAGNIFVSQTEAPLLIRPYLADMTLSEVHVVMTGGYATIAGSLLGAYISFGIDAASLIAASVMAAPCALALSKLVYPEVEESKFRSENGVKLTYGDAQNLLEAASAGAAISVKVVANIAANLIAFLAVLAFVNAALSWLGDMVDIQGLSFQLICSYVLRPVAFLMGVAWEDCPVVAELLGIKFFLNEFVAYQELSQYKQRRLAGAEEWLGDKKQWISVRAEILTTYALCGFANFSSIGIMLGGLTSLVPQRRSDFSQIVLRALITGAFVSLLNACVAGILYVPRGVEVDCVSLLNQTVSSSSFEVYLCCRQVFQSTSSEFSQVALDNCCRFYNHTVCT

[3] = target: T3, Equilibrative nucleoside transporter 2 (Mus musculus) (UniProt Q61672); test: Transport through ENT2 in mouse hepatocytes by oil filtration assay in presence 100 uM of transporter inhibitor NBMRP
T3 sequence (whole entry): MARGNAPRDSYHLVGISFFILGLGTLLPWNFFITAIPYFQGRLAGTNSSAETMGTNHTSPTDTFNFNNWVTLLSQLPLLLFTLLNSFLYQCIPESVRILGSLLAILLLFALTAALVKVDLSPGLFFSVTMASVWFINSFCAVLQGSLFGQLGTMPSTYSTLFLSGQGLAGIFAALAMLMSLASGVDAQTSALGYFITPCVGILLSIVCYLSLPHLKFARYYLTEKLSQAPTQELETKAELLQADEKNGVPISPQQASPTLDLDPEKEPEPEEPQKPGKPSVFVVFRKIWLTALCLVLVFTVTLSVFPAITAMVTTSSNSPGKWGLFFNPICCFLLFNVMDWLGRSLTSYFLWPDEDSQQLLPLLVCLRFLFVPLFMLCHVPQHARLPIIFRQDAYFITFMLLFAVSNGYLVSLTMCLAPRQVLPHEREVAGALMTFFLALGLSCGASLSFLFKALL

[4] = target: T4, Equilibrative nucleoside transporter 1 (Rattus norvegicus) (UniProt O54698); test: Transport through ENT1 in rat hepatocytes by oil filtration assay in presence 100 uM of transporter inhibitor NBMRP
T4 sequence (whole entry): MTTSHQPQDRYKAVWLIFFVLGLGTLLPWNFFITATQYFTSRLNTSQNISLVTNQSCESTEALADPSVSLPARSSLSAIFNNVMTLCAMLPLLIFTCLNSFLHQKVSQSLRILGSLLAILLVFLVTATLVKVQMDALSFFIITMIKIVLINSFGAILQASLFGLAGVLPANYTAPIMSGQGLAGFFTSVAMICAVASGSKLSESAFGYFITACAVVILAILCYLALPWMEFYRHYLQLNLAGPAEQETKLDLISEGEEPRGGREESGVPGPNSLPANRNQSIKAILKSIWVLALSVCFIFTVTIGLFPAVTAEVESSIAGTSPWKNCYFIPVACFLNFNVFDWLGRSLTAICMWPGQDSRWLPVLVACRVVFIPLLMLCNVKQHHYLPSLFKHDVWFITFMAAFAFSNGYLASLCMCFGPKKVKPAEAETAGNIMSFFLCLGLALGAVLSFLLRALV

[5] = target: T5, Sodium/nucleoside cotransporter 2 (Mus musculus) (UniProt O88627); test: Transport through CNT2 in mouse hepatocytes by oil filtration assay in presence of sodium ions in Kreb-henseleit buffer
T5 sequence (whole entry): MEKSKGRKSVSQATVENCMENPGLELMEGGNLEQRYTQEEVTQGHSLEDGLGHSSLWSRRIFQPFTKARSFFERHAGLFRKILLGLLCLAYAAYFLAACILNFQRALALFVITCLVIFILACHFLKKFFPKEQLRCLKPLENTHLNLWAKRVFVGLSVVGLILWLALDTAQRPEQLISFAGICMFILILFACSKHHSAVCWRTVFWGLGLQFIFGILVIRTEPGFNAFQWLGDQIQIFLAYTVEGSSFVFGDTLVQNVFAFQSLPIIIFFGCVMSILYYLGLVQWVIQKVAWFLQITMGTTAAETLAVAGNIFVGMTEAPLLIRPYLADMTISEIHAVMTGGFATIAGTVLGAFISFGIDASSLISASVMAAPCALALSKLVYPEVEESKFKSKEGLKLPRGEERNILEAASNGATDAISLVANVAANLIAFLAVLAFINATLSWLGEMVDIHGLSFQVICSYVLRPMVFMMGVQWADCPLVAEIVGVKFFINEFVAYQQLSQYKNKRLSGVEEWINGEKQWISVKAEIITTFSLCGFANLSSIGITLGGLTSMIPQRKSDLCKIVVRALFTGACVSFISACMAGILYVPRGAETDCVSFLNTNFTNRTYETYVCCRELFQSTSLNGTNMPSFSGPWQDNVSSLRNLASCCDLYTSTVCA

Measured: Activity

Nc1ncnc2c1ncn2[C@@H]1O[C@H](CO)[C@@H](O)[C@H]1O
inactive: [1] | [2] | [3] | [4] | [5]

NC(=O)c1ncn([C@@H]2O[C@H](CO)[C@@H](O)[C@H]2O)n1
inactive: [1] | [2] | [3] | [4] | [5]
